Data: patent publication US20240379187A1, “SYSTEMS AND METHODS FOR OMICS-BASED ANALYSIS OF GENE EXPRESSION” (priority 2023, published 2024)

Columns and labels:
C. difficile [1] = conditions: cited from earlier work
C. difficile [2] = assay: CAT-GxD re-analysis of public C. difficile gene expression datasets (heatmap, PCA, STRING network, KEGG PTS pathway overlay) after DCA or succinate exposure; type: cell-based, Clostridioides difficile; conditions: for most of the Glc family phosphorylation and L-ascorbate phosphorylation (KEGG PTS pathway): unchanged in Δsig54
Text: Typically, specific gene expression datasets and protein quantitation datasets for the selected target organism are collected and made available. In an exemplary form, C. difficile-specific gene expression datasets and protein quantitation datasets were collected from GEO database and ProteomeXchange databases, respectively. An SQL database was generated using RSQlite (version 2.3.4) (25) to incorporate the 56 nonredundant GEO transcriptomics datasets and 8 quantitative proteomic datasets. GEO subseries datasets already available in their respective superseries dataset were excluded. Quantitative total proteomic datasets were included; those focused on post-translational modification studies were excluded. To integrate and normalize the datasets, gene IDs were matched to the Ensembl stable IDs of the widely accepted C. difficile 630 reference strain using BLASTp, using protein identity and gene position comparisons and given the NCBI format CD630. Pre-computed log2 ratios without any gene duplication were imported as is. Studies with replicate log2 ratios assigned for a gene ID (common in microarray experiments due to replicate spots) were solved by computing the median log2 ratio. Two-channel microarray experiments with duplicate ratios assigned to a gene were solved by computing the average of the complementary ratios then log2 transformed. Reads Per Kilobase Million (RPKM) of raw RNASeq data were computed. For datasets without any computed ratios, log2 ratios were calculated for each treatment vs. control, and median normalization was performed. Gene classifications (described in Input and Data Filtering) were compiled to provide a comprehensive and robust search.
To glean additional insight into the interactions between the remaining 26 genes, the analysis was transitioned to the STRING database by clicking on the STRING icon at the top left of the page (expression information, however, will not ‘carry over’). […] The least number of nodes with the higher network association scores were selected to bridge the clusters. […] Next, the 5 bridging nodes and rpoN/sigL/sig54 were added to the 26 gene set and re-entered in the CAT-GXD's ‘Search’ bar. […] In order to link the separate networks, the 26 genes were sent to the STRING database by clicking on the STRING icon.
In the pathway tab in CAT-GxD, gene expression data for specific conditions can be overlaid on selected KEGG pathways.

C. difficile [3] = conditions: cited from earlier work; remark: listed apart in the source
[4] = C. difficile exposed to 240 μM DCA for 48 hours
[5] = DCA exposure, compared with succinate exposure
[6] = C. difficile exposed to 80 mM succinate for 24 hours
[7] = C. difficile treated with 80 mM succinate for 24 hours

Compound	biofilm formation in C. difficile (C. difficile [1])	SigL/Sig54/RpoN expression (C. difficile [2]; [4])	expression of central bridging node pheA (C. difficile [2]; [4])	genes of cluster [2] downregulated (C. difficile [2]; [4])	number of the 27 Δsig54 downregulated genes also downregulated (C. difficile [2]; [4])	bridging nodes downregulated (C. difficile [2]; C. difficile exposed to 240 μM DCA for 48 hours, bridging nodes ptsH, pheA, pfo, CD3092, CD3640)	expression of cluster [2] bridging node ptsH (C. difficile [2]; DCA exposure (240 μM, 48 hours))	mannitol (mtlF) phosphorylation (KEGG PTS pathway) (C. difficile [2]; [5])	sorbitol phosphorylation (KEGG PTS pathway) (C. difficile [2]; [5])	most of the Glc family phosphorylation and L-ascorbate phosphorylation (KEGG PTS pathway) (C. difficile [2]; DCA ratio (240 μM, 48 hrs))	biofilm thickness compared with DCA-induced biofilm (C. difficile [1]; succinate versus DCA)	mtlF expression in succinate induced biofilms (C. difficile [3])	expression of bridging node pfo of clusters [1] and [3] (C. difficile [2]; [6])	expression of central bridging node pheA (C. difficile [2]; [6])	expression of cluster [2] bridging node ptsH (C. difficile [2]; [6])	SigL expression (C. difficile [2]; [7])	genes (clusters [1] and [3]) displaying contrasting expression patterns relative to Δsig54 (C. difficile [2]; [7])	genes (of the 10 of cluster [2]) with similar downregulation patterns as with Sig54 loss (C. difficile [2]; [7])	cellobiose, fructoselysine and sorbitol phosphorylation (KEGG PTS pathway) (C. difficile [2]; succinate exposure, compared with DCA exposure)	most of the Glc family phosphorylation and L-ascorbate phosphorylation (KEGG PTS pathway) (C. difficile [2]; succinate ratio (24 hrs biofilm))
C[C@H](CCC(=O)O)[C@H]1CC[C@H]2[C@@H]3CC[C@@H]4C[C@H](O)CC[C@]4(C)[C@H]3C[C@H](O)[C@]12C [DCA]	induce biofilm formation	downregulated	upregulated	3 of 10	19 of the 27	4 of the 5	downregulated	increased	decreased	downregulated	–	–	–	–	–	–	–	–	–	–
O=C(O)CCC(=O)O [succinate]	induce biofilm formation	–	–	–	–	–	–	–	–	–	significantly thicker biofilm	downregulation	upregulated	upregulated	downregulated	upregulation	13 of 27	7 of the 10	increased	downregulated
